These results are taken from US20080161289A1, “Fused Thiazole Derivatives Having Affinity for the Histamine H3 Receptor” (Glaxo Group Limited, priority 2005, published 2008).

Bounds are passed on as bounds.

The experiment deals with T1, histamine H3 receptors (Homo sapiens, UniProt Q9Y5N1).
T1 construct: expressed in transfected cells; host or cells: CHO K1 cells carrying pSwitch, transfected with pGeneH3, induced with mifepristone; clone 3H3; membrane preparation
The experiment is described as follows: Histamine H3 functional antagonist assay ([35S]-GTPγS SPA on membranes from H3 cells). To be noted: hydrochloride salts tested; H3 functional antagonist assay using membrane prepared from cultured H3 cells; averages of a number of experiments; read-out: functional pKi (fpKi) (converted). The format is biochemical. The source says: A membrane preparation containing histamine H3 receptors may be prepared in accordance with the following procedures:
(i) Generation of Histamine H3 Cell Line
DNA encoding the human histamine H3 gene (Huvar, A. et al. (1999) Mol. Pharmacol. 55(6), 1101-1107) was cloned into a holding vector, pCDNA3.1 TOPO (InVitrogen) and its cDNA was isolated from this vector by restriction digestion of plasmid DNA with the enzymes BamHI and Not-1 and ligated into the inducible expression vector pGene (InVitrogen) digested with the same enzymes. The GeneSwitch™ system (a system where in transgene expression is switched off in the absence of an inducer and switched on in the presence of an inducer) was performed as described in U.S. Pat. Nos. 5,364,791; 5,874,534; and 5,935,934. Ligated DNA was transformed into competent DH5α E. coli host bacterial cells and plated onto Luria Broth (LB) agar containing Zeocin™ (an antibiotic which allows the selection of cells expressing the sh ble gene which is present on pGene and pSwitch) at 50 μg ml^−1. Colonies containing the re-ligated plasmid were identified by restriction analysis. DNA for transfection into mammalian cells was prepared from 250 ml cultures of the host bacterium containing the pGeneH3 plasmid and isolated using a DNA preparation kit (Qiagen Midi-Prep) as per manufacturers guidelines (Qiagen).
CHO K1 cells previously transfected with the pSwitch regulatory plasmid (InVitrogen) were seeded at 2×10e6 cells per T75 flask in Complete Medium, containing Hams F12 (GIBCOBRL, Life Technologies) medium supplemented with 10% v/v dialysed foetal bovine serum, L-glutamine, and hygromycin (100 μg ml^−1), 24 hours prior to use. Plasmid DNA was transfected into the cells using Lipofectamine plus according to the manufacturers guidelines (InVitrogen). 48 hours post transfection cells were placed into complete medium supplemented with 500 μg ml^−1 Zeocin™.
10-14 days post selection 10 nM Mifepristone (InVitrogen), was added to the culture medium to induce the expression of the receptor. 18 hours post induction cells were detached from the flask using ethylenediamine tetra-acetic acid (EDTA; 1:5000; InVitrogen), following several washes with phosphate buffered saline pH 7.4 and resuspended in Sorting Medium containing Minimum Essential Medium (MEM), without phenol red, and supplemented with Earles salts and 3% Foetal Clone II (Hyclone). Approximately 1×10e7 cells were examined for receptor expression by staining with a rabbit polyclonal antibody, 4a, raised against the N-terminal domain of the histamine H3 receptor, incubated on ice for 60 minutes, followed by two washes in sorting medium. Receptor bound antibody was detected by incubation of the cells for 60 minutes on ice with a goat anti rabbit antibody, conjugated with Alexa 488 fluorescence marker (Molecular Probes). Following two further washes with Sorting Medium, cells were filtered through a 50 μm Filcon™ (BD Biosciences) and then analysed on a FACS Vantage SE Flow Cytometer fitted with an Automatic Cell Deposition Unit. Control cells were non-induced cells treated in a similar manner. Positively stained cells were sorted as single cells into 96-well plates, containing Complete Medium containing 500 μg ml^−1 Zeocin™ and allowed to expand before reanalysis for receptor expression via antibody and ligand binding studies. One clone, 3H3, was selected for membrane preparation.
(ii) Membrane Preparation from Cultured Cells
All steps of the protocol are carried out at 4° C. and with pre-cooled reagents. The cell pellet is resuspended in 10 volumes of homogenisation buffer (50 mM N-2-hydroxyethylpiperazine-N′-2-ethanesulfonic acid (HEPES), 1 mM ethylenediamine tetra-acetic acid (EDTA), pH 7.4 with KOH, supplemented with 10e-6M leupeptin (acetyl-leucyl-leucyl-arginal; Sigma L2884), 25 μg/ml bacitracin (Sigma B0125), 1 mM phenylmethylsulfonyl fluoride (PMSF) and 2×10e-6M pepstain A (Sigma)). […]
In general terms: Binding of GTPγS marks nucleotide exchange on a G protein.

T1 sequence (Q9Y5N1 whole entry): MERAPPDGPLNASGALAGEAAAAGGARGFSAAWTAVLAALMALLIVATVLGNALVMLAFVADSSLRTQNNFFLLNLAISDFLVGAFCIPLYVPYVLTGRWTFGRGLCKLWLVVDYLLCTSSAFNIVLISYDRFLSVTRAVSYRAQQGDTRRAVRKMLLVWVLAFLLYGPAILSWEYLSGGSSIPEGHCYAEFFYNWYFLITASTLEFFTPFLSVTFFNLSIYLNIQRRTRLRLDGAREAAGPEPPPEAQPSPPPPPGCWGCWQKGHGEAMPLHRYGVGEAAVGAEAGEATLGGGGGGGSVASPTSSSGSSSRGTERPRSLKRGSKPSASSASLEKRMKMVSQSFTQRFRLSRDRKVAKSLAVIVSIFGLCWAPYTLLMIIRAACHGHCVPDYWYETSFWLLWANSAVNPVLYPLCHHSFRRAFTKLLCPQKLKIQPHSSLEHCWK

Consider `Cc1ccc(C(=O)N2CCC(c3nc4c(s3)CCN(C3CCC3)CC4)CC2)cc1` [Example E14, 6-Cyclobutyl-2-{1-[(4-methylphenyl)carbonyl]-4-piperidinyl}-5,6,7,8-tetrahydro-4H-[1,3]thiazolo[4,5-d]azepine], for which the Ki is under 1.26 nM. Under `Cc1cc(C(=O)N2CCC(c3nc4c(s3)CCN(C3CCC3)CC4)CC2)no1` [Example E15, 6-Cyclobutyl-2-{1-[(5-methyl-3-isoxazolyl)carbonyl]-4-piperidinyl}-5,6,7,8-tetrahydro-4H-[1,3]thiazolo[4,5-d]azepine] stands under 1.26 nM; under `O=C(c1csnn1)N1CCC(c2nc3c(s2)CCN(C2CCC2)CC3)CC1` [Example E16, 6-Cyclobutyl-2-[1-(1,2,3-thiadiazol-4-ylcarbonyl)-4-piperidinyl]-5,6,7,8-tetrahydro-4H-[1,3]thiazolo[4,5-d]azepine], under 1.26 nM; under `Cn1ccc(C(=O)N2CCC(c3nc4c(s3)CCN(C3CCC3)CC4)CC2)n1` [Example E17, 6-Cyclobutyl-2-{1-[(1-methyl-1H-pyrazol-3-yl)carbonyl]-4-piperidinyl}-5,6,7,8-tetrahydro-4H-[1,3]thiazolo[4,5-d]azepine], under 1.26 nM. For the compound `Cc1cc(C(=O)N2CCC(c3nc4c(s3)CCN(C3CCC3)CC4)CC2)on1` [Example E18, 6-Cyclobutyl-2-{1-[(3-methyl-5-isoxazolyl)carbonyl]-4-piperidinyl}-5,6,7,8-tetrahydro-4H-[1,3]thiazolo[4,5-d]azepine], the Ki was under 1.26 nM.

As for `Cc1ccc(N2CCC(c3nc4c(s3)CCN(C3CCC3)CC4)CC2)cn1` [Example E19, 6-Cyclobutyl-2-[1-(6-methyl-3-pyridinyl)-4-piperidinyl]-5,6,7,8-tetrahydro-4H-[1,3]thiazolo[4,5-d]azepine], the Ki is under 1.26 nM. Under `N#Cc1ccc(N2CCC(c3nc4c(s3)CCN(C3CCC3)CC4)CC2)cn1` [Example E20, 5-[4-(6-Cyclobutyl-5,6,7,8-tetrahydro-4H-[1,3]thiazolo[4,5-d]azepin-2-yl)-1-piperidinyl]-2-pyridinecarbonitrile] stands under 0.316 nM. For `NC(=O)c1ccc(N2CCC(c3nc4c(s3)CCN(C3CCC3)CC4)CC2)cn1` [Example E22, 5-[4-(6-Cyclobutyl-5,6,7,8-tetrahydro-4H-[1,3]thiazolo[4,5-d]azepin-2-yl)-1-piperidinyl]-2-pyridinecarboxamide], the Ki was under 0.316 nM. With `CN(C)C(=O)c1ccc(N2CCC(c3nc4c(s3)CCN(C3CCC3)CC4)CC2)cn1` [Example E24, 5-[4-(6-Cyclobutyl-5,6,7,8-tetrahydro-4H-[1,3]thiazolo[4,5-d]azepin-2-yl)-1-piperidinyl]-N,N-dimethyl-2-pyridinecarboxamide], the Ki is under 1.26 nM. Under `Cc1ncccc1C(=O)N1CCC(c2nc3c(s2)CCN(C2CCC2)CC3)CC1` [Example E25, 6-Cyclobutyl-2-{1-[(2-methyl-3-pyridinyl)carbonyl]-4-piperidinyl}-5,6,7,8-tetrahydro-4H-[1,3]thiazolo[4,5-d]azepine] stands under 1.26 nM. Under `CN1CCN(c2ccc(-c3nc4c(s3)CCN(C3CCC3)CC4)cc2)C1=O` [Example E26, 1-[4-(6-Cyclobutyl-5,6,7,8-tetrahydro-4H-[1,3]thiazolo[4,5-d]azepin-2-yl)phenyl]-3-methyl-2-imidazolidinone] stands under 0.316 nM. Under `O=C1NCCN1c1ccc(-c2nc3c(s2)CCN(C2CCC2)CC3)cc1` [Example E27, 1-[4-(6-Cyclobutyl-5,6,7,8-tetrahydro-4H-[1,3]thiazolo[4,5-d]azepin-2-yl)phenyl]-2-imidazolidinone] stands under 1.26 nM; under `CN1CCN(c2ccc(-c3nc4c(s3)CCN(C3CCCC3)CC4)cc2)C1=O` [Example E28, 1-[4-(6-Cyclopentyl-5,6,7,8-tetrahydro-4H-[1,3]thiazolo[4,5-d]azepin-2-yl)phenyl]-3-methyl-2-imidazolidinone], under 0.316 nM.

As for `CC(C)N1CCc2nc(-c3ccc(N4CCN(C)C4=O)cc3)sc2CC1` [Example E29, 1-Methyl-3-{4-[6-(1-methylethyl)-5,6,7,8-tetrahydro-4H-[1,3]thiazolo[4,5-d]azepin-2-yl]phenyl}-2-imidazolidinone], the Ki is under 1.26 nM. With `CN1CCN(c2ccc(-c3nc4c(s3)CCN(C3CCCCC3)CC4)cc2)C1=O` [Example E30, 1-[4-(6-Cyclohexyl-5,6,7,8-tetrahydro-4H-[1,3]thiazolo[4,5-d]azepin-2-yl)phenyl]-3-methyl-2-imidazolidinone], the Ki is under 1.26 nM. For `CN1CCN(c2ccc(-c3nc4c(s3)CCN(CC3CC3)CC4)cc2)C1=O` [Example E31, 1-{4-[6-(Cyclopropylmethyl)-5,6,7,8-tetrahydro-4H-[1,3]thiazolo[4,5-d]azepin-2-yl]phenyl}-3-methyl-2-imidazolidinone], the Ki was under 1.26 nM. Under `CC(C)CN1CCc2nc(-c3ccc(N4CCN(C)C4=O)cc3)sc2CC1` [Example E32, 1-Methyl-3-{4-[6-(2-methylpropyl)-5,6,7,8-tetrahydro-4H-[1,3]thiazolo[4,5-d]azepin-2-yl]phenyl}-2-imidazolidinone] stands under 0.316 nM. Under `N#Cc1cncc(N2CCC(c3nc4c(s3)CCN(C3CCC3)CC4)C2)c1` (centres unmarked) [Example E39, 5-[3-(6-Cyclobutyl-5,6,7,8-tetrahydro-4H-[1,3]thiazolo[4,5-d]azepin-2-yl)-1-pyrrolidinyl]-3-pyridinecarbonitrile] stands under 1.26 nM.

Consider `c1ccc(-c2nc3c(s2)CCN(C2CCC2)CC3)cc1` [Example E42, 6-Cyclobutyl-2-phenyl-5,6,7,8-tetrahydro-4H-[1,3]thiazolo[4,5-d]azepine], for which the Ki was under 31.6 nM. Under `CNC(=O)c1ccc(-c2nc3c(s2)CCN(C2CCC2)CC3)cc1` [Example E43, 4-(6-Cyclobutyl-5,6,7,8-tetrahydro-4H-[1,3]thiazolo[4,5-d]azepin-2-yl)-N-methylbenzamide] stands under 1.26 nM; under `O=C1OCCN1c1ccc(-c2nc3c(s2)CCN(C2CCC2)CC3)cc1` [Example E44, 3-[4-(6-Cyclobutyl-5,6,7,8-tetrahydro-4H-[1,3]thiazolo[4,5-d]azepin-2-yl)phenyl]-1,3-oxazolidin-2-one], under 0.316 nM; under `N#Cc1ccc(-c2nc3c(s2)CCN(C2CCC2)CC3)cc1` [Example E48, 4-(6-Cyclobutyl-5,6,7,8-tetrahydro-4H-[1,3]thiazolo[4,5-d]azepin-2-yl)benzonitrile], under 1.26 nM. Regarding `N#Cc1ccc(-c2nc3c(s2)CCN(C2CCC2)CC3)cn1` [Example E49, 5-(6-Cyclobutyl-5,6,7,8-tetrahydro-4H-[1,3]thiazolo[4,5-d]azepin-2-yl)-2-pyridinecarbonitrile], the Ki was under 31.6 nM.

On to `CNC(=O)c1ccc(-c2nc3c(s2)CCN(C2CCC2)CC3)cn1` [Example E51, 5-(6-Cyclobutyl-5,6,7,8-tetrahydro-4H-[1,3]thiazolo[4,5-d]azepin-2-yl)-N-methyl-2-pyridinecarboxamide], for which the Ki is under 1.26 nM. Under `O=C1CCCN1c1ccc(-c2nc3c(s2)CCN(C2CCC2)CC3)cn1` [Example E52, 1-[5-(6-Cyclobutyl-5,6,7,8-tetrahydro-4H-[1,3]thiazolo[4,5-d]azepin-2-yl)-2-pyridinyl]-2-pyrrolidinone] stands under 0.316 nM; under `CN1CCN(c2ccc(-c3nc4c(s3)CCN(C3CCC3)CC4)cn2)C1=O` [Example E53, 1-[5-(6-Cyclobutyl-5,6,7,8-tetrahydro-4H-[1,3]thiazolo[4,5-d]azepin-2-yl)-2-pyridinyl]-3-methyl-2-imidazolidinone], under 0.316 nM.
